Test results published in ChEMBL document CHEMBL5120859, “Optimization of 4-arylthiophene-3-carboxylic acid derivatives as inhibitors of ANO1: Lead optimization studies toward their analgesic efficacy for inflammatory pain” (Eur J Med Chem, 2022).

What was measured:
[1] = molecular target: Voltage-gated inwardly rectifying potassium channel KCNH2 (Homo sapiens, UniProt Q12809); test: Cardiotoxicity against human ERG expressed in HEK293 cells by patch clamp assay; type: toxicity, cell-based
[2] = molecular target: Sodium channel protein type 7 subunit alpha (Homo sapiens) (UniProt Q01118); test: Inhibition of Nav1.7 (unknown origin) in half-inactivated condition at 30 uM by whole cell patch clamp electrophysiology relative to control
Sequence of Sodium channel protein type 7 subunit alpha (Homo sapiens) (Q01118 whole entry): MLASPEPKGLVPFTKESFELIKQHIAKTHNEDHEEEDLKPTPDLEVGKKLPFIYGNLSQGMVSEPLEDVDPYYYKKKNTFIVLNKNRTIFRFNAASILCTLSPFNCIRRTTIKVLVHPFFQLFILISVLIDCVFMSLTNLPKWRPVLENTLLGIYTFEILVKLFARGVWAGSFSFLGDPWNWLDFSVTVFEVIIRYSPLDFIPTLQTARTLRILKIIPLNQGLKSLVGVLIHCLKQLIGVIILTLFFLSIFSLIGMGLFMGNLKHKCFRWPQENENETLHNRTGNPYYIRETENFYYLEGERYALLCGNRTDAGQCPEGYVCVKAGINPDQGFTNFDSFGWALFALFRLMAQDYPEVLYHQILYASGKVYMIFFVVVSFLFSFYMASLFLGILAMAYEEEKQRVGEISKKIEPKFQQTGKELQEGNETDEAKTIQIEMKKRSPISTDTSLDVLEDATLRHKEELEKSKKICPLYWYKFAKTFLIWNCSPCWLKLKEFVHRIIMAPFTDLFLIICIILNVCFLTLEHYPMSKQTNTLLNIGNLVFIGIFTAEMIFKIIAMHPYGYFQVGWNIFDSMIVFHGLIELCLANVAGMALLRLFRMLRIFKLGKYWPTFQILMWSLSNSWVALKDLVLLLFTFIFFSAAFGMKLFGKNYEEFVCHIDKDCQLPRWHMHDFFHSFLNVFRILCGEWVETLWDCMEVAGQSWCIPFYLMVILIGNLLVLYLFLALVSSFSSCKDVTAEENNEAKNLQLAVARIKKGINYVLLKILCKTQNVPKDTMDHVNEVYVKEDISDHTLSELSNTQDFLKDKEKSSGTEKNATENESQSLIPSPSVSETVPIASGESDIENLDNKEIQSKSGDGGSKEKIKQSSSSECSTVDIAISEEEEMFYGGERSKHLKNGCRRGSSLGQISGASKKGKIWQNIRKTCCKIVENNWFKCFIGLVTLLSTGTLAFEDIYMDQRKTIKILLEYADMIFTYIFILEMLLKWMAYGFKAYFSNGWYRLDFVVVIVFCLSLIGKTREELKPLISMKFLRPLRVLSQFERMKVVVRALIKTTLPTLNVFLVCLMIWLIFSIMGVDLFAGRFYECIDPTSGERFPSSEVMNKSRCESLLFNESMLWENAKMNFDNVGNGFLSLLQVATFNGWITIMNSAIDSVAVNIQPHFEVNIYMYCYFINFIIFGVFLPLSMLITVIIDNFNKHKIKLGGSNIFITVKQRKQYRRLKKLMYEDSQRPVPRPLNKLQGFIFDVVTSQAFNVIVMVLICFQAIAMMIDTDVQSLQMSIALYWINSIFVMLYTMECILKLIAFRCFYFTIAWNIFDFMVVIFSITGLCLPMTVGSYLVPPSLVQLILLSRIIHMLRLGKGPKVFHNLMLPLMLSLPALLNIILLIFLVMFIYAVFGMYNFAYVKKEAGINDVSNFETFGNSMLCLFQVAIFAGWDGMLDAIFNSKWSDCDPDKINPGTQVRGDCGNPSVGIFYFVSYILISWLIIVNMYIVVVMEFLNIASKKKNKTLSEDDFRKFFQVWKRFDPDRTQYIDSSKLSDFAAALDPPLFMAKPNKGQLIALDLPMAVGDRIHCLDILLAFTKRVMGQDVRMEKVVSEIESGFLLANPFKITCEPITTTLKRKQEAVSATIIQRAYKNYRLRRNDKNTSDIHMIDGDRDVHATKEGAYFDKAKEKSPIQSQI

[3] = molecular target: Voltage-gated potassium channel, KQT; KCNQ2(Kv7.2)/KCNQ3(Kv7.3) (Homo sapiens) (UniProt O43526+O43525); test: Inhibition of KCNQ2/3 (unknown origin) at a holding potential -40 mV at 30 uM by whole cell patch clamp electrophysiology relative to control
[4] = Tmax in C57BL/6 mouse at 40 mg/kg,IG measured upto 24 hrs by HPLC-MS/MS analysis; type: ADME, organism-based; conditions: in vivo, po
[5] = Tmax in C57BL/6 mouse at 80 mg/kg,IG measured upto 24 hrs by HPLC-MS/MS analysis; type: ADME, organism-based; conditions: in vivo, po
[6] = Cmax in C57BL/6 mouse at 40 mg/kg,iv measured upto 24 hrs by HPLC-MS/MS analysis; type: ADME, organism-based; parameters: time < 24 hrs, dose 40 mg/kg, route iv; conditions: in vivo
[7] = Cmax in C57BL/6 mouse at 40 mg/kg,IG measured upto 24 hrs by HPLC-MS/MS analysis; type: ADME, organism-based; parameters: dose 40 mg/kg, time < 24 hrs, route ig; conditions: in vivo, po
[8] = Cmax in C57BL/6 mouse at 80 mg/kg,IG measured upto 24 hrs by HPLC-MS/MS analysis; type: ADME, organism-based; parameters: dose 80 mg/kg, time < 24 hrs, route ig; conditions: in vivo, po
[9] = AUC (0 to t) in C57BL/6 mouse at 40 mg/kg,IG measured upto 24 hrs by HPLC-MS/MS analysis; type: ADME, organism-based; parameters: dose 40 mg/kg, time < 24 hrs, route ig; conditions: in vivo, po
[10] = MRT (0 to t) in C57BL/6 mouse at 40 mg/kg,iv measured upto 24 hrs by HPLC-MS/MS analysis; type: ADME, organism-based; conditions: in vivo
[11] = MRT (0 to t) in C57BL/6 mouse at 40 mg/kg,IG measured upto 24 hrs by HPLC-MS/MS analysis; type: ADME, organism-based; conditions: in vivo, po
[12] = Bioavailability in C57BL/6 mouse at 80 mg/kg,IG measured upto 24 hrs by HPLC-MS/MS analysis; type: ADME, organism-based; conditions: in vivo, po
[13] = Brain concentration in C57BL/6 mouse at 40 mg/kg,IG measured after 6 hrs by HPLC analysis; type: ADME, organism-based; conditions: po, read-out: Ct
[14] = Plasma concentration in C57BL/6 mouse at 40 mg/kg,IG measured after 0.25 hrs by HPLC analysis; type: ADME, organism-based; conditions: po
[15] = Plasma concentration in C57BL/6 mouse at 40 mg/kg,IG measured after 6 hrs by HPLC analysis; type: ADME, organism-based; conditions: po
[16] = Plasma concentration in C57BL/6 mouse at 40 mg/kg,IG measured after 24 hrs by HPLC analysis; type: ADME, organism-based; conditions: po
[17] = Ratio of drug concentration in brain to plasma in C57BL/6 mouse at 40 mg/kg,IG measured after 6 hrs by HPLC analysis; type: ADME, organism-based; conditions: po
[18] = molecular target: T1, Anoctamin-1 (Homo sapiens) (UniProt Q5XXA6); test: Inhibition of YFP tagged ANO1 (unknown origin) expressed in FRT cells at 30 uM incubated for 24 hrs by whole cell patch clamp electrophysiology relative to control; type: cell-based
T1 sequence (whole entry): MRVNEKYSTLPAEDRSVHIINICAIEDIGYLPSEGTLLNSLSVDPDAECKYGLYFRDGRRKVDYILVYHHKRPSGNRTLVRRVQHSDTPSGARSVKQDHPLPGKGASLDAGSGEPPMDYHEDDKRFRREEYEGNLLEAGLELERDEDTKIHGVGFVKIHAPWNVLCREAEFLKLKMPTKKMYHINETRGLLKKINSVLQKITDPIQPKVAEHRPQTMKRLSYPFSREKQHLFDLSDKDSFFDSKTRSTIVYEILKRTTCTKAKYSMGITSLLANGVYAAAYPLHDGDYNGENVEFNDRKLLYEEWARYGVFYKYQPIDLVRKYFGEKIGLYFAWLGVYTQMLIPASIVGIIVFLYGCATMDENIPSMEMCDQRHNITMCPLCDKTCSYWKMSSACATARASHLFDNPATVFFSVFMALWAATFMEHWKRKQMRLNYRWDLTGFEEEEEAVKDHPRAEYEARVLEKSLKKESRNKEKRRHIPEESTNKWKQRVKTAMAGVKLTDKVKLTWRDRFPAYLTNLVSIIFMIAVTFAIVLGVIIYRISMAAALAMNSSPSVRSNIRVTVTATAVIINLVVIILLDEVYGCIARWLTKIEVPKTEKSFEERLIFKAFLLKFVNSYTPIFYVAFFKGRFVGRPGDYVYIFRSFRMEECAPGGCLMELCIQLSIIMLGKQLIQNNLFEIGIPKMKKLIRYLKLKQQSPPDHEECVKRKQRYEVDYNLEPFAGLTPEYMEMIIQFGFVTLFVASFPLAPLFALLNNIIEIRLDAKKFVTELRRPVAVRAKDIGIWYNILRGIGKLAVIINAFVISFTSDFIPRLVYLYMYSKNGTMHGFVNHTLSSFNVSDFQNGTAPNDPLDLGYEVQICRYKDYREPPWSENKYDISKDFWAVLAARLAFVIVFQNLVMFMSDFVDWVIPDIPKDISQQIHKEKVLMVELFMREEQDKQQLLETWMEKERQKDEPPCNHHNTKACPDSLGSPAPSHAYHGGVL

Sequence of Voltage-gated inwardly rectifying potassium channel KCNH2 (Q12809 whole entry): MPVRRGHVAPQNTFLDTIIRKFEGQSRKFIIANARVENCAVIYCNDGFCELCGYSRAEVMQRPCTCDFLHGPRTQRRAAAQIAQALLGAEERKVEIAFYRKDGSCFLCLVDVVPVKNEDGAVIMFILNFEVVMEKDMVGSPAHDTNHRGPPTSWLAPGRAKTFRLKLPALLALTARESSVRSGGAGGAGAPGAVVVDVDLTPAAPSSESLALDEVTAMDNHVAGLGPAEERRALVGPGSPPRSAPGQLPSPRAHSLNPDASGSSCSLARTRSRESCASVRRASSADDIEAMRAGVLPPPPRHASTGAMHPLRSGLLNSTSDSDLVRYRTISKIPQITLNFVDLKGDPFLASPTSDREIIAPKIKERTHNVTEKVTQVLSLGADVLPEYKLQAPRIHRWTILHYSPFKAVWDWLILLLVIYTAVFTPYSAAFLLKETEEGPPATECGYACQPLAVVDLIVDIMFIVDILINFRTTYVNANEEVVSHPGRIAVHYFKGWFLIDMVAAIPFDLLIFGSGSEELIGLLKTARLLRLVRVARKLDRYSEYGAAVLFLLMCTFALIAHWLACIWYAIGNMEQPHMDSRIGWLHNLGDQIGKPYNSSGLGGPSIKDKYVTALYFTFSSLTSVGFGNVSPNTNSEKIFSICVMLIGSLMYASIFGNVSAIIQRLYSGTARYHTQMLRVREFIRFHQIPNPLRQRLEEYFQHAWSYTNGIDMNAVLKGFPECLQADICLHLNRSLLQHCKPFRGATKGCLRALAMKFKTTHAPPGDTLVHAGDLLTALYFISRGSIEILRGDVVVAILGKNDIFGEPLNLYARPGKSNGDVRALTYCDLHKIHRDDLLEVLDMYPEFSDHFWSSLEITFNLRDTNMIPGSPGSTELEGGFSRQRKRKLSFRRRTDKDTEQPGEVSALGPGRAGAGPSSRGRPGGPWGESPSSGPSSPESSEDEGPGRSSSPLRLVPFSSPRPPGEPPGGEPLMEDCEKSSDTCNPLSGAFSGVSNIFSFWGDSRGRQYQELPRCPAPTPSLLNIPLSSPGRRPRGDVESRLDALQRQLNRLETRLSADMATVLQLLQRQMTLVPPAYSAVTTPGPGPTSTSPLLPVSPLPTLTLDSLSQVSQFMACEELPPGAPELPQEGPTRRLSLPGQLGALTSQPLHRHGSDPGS

`O=C(Nc1scc(-c2ccc(Cl)cc2)c1C(=O)O)c1cc(F)ccc1F` gave an IC50 [1] of over 30 µM, an inhibition [2] of 6.5% and an inhibition [3] of 21.4%. The Tmax [4] was 0.25 h, the Tmax [5] was 0.17 h and the Cmax [6] was 183 µg/mL. The Cmax [7] was 97.7 µg/mL, the Cmax [8] was 130 µg/mL and the AUC(0-t) at 24 h [9] was 265 µg·h/mL. It also gave an MRT last at 24 h [10] of 4.9 h, an MRT last at 24 h [11] of 5.4 h and a bioavailability [12] of 85.1%. The concentration at 6 h [13] was 337 ng/g, the concentration at 0.25 h [14] was 97.7 µg/mL and the concentration at 6 h [15] was 24.3 µg/mL. The concentration at 24 h [16] was 1.67 µg/mL, the Ratio [17] was 1.4% and the inhibition [18] was 95.6%.
